From the supplement of paper PMC12076712

What was measured:
Assay in all cases: pIC50, kinobeads binding competition
Settings in all cases: cell material: Jurkat lysate
UniProt Q9NSY1 = target: UniProt Q9NSY1
MAST3 = MAST3 (UniProt O60307)
PHKG2 = target: T1, PHKG2 (UniProt P15735)
T1 sequence (whole entry): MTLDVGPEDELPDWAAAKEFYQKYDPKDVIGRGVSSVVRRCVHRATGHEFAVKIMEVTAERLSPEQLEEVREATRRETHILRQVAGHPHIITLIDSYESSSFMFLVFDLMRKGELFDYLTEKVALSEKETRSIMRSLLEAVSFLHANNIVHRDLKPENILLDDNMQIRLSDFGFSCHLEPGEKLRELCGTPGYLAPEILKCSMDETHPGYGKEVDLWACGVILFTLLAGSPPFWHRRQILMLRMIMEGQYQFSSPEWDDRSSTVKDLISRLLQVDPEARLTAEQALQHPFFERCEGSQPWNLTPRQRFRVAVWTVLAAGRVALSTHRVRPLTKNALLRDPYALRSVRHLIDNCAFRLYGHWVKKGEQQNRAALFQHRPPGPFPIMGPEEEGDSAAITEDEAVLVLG

NEK9 = target: T2, NEK9 (UniProt Q8TD19)
T2 sequence (whole entry): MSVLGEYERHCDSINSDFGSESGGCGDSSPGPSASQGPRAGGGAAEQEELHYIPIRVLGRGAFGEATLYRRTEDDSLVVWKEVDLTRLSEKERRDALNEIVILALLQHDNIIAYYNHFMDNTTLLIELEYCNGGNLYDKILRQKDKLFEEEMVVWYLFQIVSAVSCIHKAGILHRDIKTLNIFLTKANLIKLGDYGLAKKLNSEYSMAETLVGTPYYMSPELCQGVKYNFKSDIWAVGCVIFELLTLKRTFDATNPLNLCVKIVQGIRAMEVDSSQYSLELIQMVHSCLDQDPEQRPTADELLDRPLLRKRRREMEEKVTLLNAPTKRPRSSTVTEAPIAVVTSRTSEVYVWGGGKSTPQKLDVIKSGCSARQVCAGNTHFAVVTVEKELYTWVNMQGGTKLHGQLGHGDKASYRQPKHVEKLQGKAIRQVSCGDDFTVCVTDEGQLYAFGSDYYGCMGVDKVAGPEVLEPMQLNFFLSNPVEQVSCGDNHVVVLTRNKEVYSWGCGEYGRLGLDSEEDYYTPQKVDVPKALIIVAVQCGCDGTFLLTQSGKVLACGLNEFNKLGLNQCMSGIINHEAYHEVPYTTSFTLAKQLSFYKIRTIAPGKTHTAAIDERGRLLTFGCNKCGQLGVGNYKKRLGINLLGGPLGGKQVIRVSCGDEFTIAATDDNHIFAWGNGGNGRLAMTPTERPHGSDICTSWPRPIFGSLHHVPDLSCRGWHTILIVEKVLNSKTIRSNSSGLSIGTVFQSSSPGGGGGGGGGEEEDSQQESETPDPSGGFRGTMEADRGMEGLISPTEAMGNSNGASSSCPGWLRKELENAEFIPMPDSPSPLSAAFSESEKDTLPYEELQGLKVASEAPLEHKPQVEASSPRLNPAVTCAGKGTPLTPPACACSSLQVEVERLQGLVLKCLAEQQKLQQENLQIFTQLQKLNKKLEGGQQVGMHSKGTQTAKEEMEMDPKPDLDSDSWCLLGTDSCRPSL

FER = FER (UniProt P16591)
Chain of FER (P16591 whole entry, looked up): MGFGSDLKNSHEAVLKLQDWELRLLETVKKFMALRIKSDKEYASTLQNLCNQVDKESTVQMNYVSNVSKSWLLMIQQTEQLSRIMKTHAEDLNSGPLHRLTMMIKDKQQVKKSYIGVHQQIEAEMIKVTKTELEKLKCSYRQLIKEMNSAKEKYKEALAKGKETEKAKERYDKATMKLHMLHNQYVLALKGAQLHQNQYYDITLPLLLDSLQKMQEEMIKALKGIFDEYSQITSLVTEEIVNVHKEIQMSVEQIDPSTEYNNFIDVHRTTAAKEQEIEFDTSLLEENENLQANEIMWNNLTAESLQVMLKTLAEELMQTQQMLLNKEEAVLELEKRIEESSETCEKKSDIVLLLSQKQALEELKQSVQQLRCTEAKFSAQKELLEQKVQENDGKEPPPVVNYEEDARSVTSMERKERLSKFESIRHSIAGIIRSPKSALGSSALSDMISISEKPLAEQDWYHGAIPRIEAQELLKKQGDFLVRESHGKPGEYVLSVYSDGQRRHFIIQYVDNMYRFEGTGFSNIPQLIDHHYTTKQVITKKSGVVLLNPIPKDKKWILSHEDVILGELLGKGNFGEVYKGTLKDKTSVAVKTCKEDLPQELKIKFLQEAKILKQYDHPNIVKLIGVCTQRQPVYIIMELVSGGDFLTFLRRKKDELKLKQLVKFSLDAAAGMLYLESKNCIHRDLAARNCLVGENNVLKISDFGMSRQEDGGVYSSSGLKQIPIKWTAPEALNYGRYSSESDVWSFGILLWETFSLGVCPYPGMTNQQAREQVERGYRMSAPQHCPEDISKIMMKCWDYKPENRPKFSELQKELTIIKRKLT

UniProt Q8TF76 = target: T3, UniProt Q8TF76
T3 sequence (whole entry): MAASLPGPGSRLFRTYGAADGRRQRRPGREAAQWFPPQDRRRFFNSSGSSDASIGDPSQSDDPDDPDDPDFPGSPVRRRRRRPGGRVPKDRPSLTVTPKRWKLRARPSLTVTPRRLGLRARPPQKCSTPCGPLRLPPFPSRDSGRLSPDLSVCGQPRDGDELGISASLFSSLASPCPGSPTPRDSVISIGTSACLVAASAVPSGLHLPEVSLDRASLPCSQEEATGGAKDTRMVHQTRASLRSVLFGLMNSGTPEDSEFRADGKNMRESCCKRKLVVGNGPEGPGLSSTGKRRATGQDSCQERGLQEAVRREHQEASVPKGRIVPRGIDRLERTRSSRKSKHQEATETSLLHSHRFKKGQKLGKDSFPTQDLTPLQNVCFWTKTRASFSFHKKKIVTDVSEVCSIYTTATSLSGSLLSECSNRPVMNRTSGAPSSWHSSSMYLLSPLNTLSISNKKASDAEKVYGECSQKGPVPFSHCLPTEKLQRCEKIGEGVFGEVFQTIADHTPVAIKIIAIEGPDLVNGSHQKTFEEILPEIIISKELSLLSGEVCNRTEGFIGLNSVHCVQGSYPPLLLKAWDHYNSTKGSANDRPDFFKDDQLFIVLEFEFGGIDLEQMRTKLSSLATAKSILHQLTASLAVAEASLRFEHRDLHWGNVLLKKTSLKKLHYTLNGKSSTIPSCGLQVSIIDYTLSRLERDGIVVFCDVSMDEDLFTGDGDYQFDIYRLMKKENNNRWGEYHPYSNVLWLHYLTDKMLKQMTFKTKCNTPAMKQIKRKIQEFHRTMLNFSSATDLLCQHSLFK

HIPK1 = HIPK1 (UniProt Q86Z02)
ULK3 = target: T4, ULK3 (UniProt Q6PHR2)
T4 sequence (whole entry): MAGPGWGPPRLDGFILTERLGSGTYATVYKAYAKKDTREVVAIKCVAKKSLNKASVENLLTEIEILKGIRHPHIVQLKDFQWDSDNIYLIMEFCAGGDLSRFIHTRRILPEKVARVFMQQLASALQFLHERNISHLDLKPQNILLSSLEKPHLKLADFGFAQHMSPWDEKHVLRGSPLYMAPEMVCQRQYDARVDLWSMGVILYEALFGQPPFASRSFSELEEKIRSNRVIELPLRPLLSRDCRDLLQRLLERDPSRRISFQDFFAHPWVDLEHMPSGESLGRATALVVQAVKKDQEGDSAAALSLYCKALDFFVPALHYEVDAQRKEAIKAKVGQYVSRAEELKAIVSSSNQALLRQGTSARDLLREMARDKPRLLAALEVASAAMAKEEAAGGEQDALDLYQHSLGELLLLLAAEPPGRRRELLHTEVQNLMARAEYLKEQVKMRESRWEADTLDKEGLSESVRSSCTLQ

SRPK1 = SRPK1 (UniProt Q96SB4)
Chain of SRPK1 (Q96SB4 whole entry): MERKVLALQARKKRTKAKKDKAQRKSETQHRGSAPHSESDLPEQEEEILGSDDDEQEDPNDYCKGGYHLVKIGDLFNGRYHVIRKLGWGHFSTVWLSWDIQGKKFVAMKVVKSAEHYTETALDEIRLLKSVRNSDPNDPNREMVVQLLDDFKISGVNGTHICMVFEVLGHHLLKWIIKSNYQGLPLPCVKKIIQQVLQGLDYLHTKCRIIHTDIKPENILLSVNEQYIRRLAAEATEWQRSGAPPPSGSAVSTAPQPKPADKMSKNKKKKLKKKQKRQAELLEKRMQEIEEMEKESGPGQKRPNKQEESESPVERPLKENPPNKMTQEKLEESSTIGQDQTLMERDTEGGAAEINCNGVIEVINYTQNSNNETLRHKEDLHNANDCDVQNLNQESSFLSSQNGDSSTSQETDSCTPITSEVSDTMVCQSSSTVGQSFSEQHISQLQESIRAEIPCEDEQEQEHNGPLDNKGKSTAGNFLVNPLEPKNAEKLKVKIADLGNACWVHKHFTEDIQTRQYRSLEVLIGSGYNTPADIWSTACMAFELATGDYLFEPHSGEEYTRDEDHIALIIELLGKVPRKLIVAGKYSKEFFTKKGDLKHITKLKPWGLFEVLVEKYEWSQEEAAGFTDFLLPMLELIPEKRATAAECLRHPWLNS

CAMKK1 = CAMKK1 (UniProt Q8N5S9)
Chain of CAMKK1 (Q8N5S9 whole entry, looked up): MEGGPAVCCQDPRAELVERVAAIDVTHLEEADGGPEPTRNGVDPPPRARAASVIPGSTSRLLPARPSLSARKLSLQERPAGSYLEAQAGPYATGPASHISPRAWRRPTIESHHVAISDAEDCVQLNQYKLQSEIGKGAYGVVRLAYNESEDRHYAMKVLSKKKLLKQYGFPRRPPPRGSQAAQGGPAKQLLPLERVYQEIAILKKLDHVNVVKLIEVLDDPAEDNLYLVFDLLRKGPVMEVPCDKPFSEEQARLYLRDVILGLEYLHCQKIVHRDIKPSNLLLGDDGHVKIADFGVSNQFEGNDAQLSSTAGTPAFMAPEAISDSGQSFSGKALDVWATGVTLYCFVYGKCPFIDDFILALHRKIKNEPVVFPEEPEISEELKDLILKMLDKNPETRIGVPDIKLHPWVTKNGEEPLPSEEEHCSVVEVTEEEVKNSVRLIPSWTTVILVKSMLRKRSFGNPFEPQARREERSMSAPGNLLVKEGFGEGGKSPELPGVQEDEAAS

Chain of UniProt Q9NSY1 (Q9NSY1 whole entry, looked up): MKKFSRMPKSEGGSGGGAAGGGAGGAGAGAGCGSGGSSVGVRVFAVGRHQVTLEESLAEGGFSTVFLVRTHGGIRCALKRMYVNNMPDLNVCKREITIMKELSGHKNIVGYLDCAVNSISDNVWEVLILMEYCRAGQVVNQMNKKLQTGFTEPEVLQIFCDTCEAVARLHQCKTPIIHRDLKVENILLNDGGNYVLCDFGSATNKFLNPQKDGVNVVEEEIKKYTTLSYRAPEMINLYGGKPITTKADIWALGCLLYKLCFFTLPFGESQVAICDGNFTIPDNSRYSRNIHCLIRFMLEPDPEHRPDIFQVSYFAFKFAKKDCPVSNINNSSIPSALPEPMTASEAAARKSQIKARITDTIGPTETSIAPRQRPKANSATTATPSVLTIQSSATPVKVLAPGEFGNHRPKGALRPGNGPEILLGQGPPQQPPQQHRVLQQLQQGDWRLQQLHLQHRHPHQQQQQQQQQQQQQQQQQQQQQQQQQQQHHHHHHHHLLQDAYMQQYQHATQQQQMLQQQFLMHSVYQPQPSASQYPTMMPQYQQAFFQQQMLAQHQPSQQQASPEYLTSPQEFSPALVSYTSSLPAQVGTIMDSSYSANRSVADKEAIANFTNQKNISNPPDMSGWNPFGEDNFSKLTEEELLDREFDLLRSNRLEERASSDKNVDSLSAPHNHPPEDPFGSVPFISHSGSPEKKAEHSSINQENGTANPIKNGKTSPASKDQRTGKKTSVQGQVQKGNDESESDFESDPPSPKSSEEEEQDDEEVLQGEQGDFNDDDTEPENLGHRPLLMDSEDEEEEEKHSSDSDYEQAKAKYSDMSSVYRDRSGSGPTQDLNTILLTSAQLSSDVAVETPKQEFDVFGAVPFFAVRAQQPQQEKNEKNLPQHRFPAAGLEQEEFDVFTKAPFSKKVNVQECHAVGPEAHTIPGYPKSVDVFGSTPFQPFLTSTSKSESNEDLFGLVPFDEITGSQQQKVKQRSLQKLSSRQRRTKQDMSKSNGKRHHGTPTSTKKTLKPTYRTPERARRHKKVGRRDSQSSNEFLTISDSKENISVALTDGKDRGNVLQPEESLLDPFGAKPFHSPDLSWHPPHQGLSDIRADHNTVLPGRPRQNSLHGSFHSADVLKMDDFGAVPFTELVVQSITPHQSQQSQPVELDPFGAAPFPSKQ
Chain of MAST3 (O60307 whole entry): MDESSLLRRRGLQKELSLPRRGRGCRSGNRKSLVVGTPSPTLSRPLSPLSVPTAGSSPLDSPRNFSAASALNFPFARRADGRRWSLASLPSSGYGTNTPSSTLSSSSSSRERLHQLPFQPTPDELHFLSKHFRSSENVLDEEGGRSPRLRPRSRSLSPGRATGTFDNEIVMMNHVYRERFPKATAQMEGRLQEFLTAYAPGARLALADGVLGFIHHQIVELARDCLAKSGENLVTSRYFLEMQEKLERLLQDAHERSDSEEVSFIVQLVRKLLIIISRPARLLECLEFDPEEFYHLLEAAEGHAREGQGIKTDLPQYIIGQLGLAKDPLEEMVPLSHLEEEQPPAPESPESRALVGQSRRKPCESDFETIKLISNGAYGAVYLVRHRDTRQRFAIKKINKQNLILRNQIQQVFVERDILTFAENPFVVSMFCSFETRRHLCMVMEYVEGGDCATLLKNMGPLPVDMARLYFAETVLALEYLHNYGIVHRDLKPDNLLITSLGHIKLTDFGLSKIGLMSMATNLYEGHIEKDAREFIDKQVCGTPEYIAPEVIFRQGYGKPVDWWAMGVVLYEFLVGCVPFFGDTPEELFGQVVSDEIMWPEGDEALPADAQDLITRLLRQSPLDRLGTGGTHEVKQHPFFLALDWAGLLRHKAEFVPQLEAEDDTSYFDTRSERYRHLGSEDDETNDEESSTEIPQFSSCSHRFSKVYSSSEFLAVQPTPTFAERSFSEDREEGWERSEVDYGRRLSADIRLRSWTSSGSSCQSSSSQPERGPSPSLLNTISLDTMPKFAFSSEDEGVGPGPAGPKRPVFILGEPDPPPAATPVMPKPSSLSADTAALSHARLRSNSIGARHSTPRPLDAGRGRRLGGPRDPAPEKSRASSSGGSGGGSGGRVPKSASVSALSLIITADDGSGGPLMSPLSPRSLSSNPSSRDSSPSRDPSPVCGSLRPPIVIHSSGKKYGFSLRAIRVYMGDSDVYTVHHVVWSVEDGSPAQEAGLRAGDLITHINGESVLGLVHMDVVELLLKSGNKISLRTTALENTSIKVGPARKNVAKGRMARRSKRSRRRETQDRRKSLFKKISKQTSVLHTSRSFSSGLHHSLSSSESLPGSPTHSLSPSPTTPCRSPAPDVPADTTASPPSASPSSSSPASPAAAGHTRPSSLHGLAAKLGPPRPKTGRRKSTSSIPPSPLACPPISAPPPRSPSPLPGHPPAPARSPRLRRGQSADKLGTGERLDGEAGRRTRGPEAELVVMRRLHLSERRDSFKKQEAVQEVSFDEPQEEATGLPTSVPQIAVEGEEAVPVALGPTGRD

CCc1cnn2c(NCc3ccc[n+]([O-])c3)cc(N3CCCC[C@H]3CCO)nc12 [dinaciclib]
pIC50 (UniProt Q9NSY1): < 4.52
pIC50 (MAST3): < 4.52
pIC50 (PHKG2): < 4.52
pIC50 (NEK9): < 4.52
pIC50 (FER): < 4.52
pIC50 (UniProt Q8TF76): < 4.52
pIC50 (HIPK1): 4.77
pIC50 (ULK3): < 4.52
pIC50 (SRPK1): < 4.52
pIC50 (CAMKK1): 4.6
